From patent publication US7687079B2, “Methods of treating ileus” (priority 2002, dated 2010)

Tests used:
iNOS mRNA = iNOS mRNA expression in muscularis of transplanted grafts (real time RT-PCR); type: in vivo, rat; settings: CO-treated SITx rats, 4 hours after reperfusion; p=0.060
Experimental: The effects of inhalation of CO on transplant-induced pro-inflammatory and anti-inflammatory gene expression was assessed in muscularis extracts by RT-PCR. Muscularis extemae was collected from normal intestine and transplanted grafts 4 hours postoperatively and snap frozen in liquid nitrogen. This time point falls within the range of maximum inflammatory mediator expression that occurs between 3 and 6 hours following abdominal incision. Total RNA extraction was performed using the guanidium-thiocyanate phenol-chloroform extraction method as described previously (Eskandari et al., Am. J. Clin. Pathol. 75(3):367-370 (1997)). RNA pellets were resuspended in RNA-secure resuspension solution (Ambion Inc., Austin, Tex.), followed by removal of potentially contaminating DNA by treatment with DNase I (DNA-Free Kit, Ambion Inc., Austin, Tex.). Equal aliquots (5 μg) of total RNA from each sample were quantified by spectrophotometry (wavelength […]) and aliquoted at a concentration of 40 ng/μl. Peak mRNA expression was quantified in duplicate by SYBR Green two-step, real-time RT-PCR. […] Real-time PCR data were plotted as the ΔRn, fluorescence signal versus the cycle number. […] Quantification of mRNA expression was normalized to GAPDH and calculated relative to control using the comparative CT method (Schmittgen et al., J. Biochem. Biophys. Methods 46(1-2):69-8 (2000)). […]

serum nitrite/nitrate = serum nitrite/nitrate levels after SITx (Griess reaction); type: in vivo, rat; settings: SITx + CO vs SITx with air
Experimental: To monitor the stable end-products of NO metabolism, serum […] levels at 1, 4, and 24 hrs were measured using a commercially available test kit (Cayman, Ann Arbor, Mich.) and quantified according to the manufacturer's directions. In this assay system, nitrate is reduced to nitrite using nitrate reductase, and the nitrite concentration of the sample is subsequently measured using the Griess reaction.
FIG. 6 is a set of bar graphs that illustrate the effect of CO on serum IL-6 and nitrate/nitrite concentrations in animals receiving intestinal grafts at one and four hours after reperfusion. […] Serum IL-6 concentrations were determined using a rat enzyme-linked immunoassay (ELISA) kit (R&D, Cambridge, Mass.). The serum nitrite/nitrate levels, the stable end products of NO metabolism, were measured using a commercially available test kit (Cayman, Ann Arbor, Mich.). In this assay system, nitrate is reduced to nitrite using nitrate reductase, and nitrite concentration of the sample was subsequently measured using the Griess reaction. Serum IL-6 and nitrite/nitrate levels in animals subjected SITx and treated with air increased over time.

IL-1β protein = IL-1β protein release from muscularis extracts (ELISA); type: in vivo, mouse
Experimental: Protein and Nitric Oxide Determinations. The small bowel of control and mice subjected to intestinal manipulation was removed under sterile conditions, 4 or 24 hours post-operatively, leaving the colon in situ. The small intestine was transferred to a beaker containing chilled Hanks balanced salt solution (Sigma, St. Louis, Mo.) with 200 U/ml penicillin G and 200 μg/ml streptomycin (HBSS), the lumen flushed, and the tissue transferred to a second beaker of HBSS. The muscularis was harvested as described above for real time RT-PCR. Tissues were maintained under sterile conditions at 3 to 5° C. throughout the harvesting procedure. Isolated muscularis was blotted onto sterile gauze, and the wet weight determined to obtain aliquots of 40 to 60 mg. Tissue aliquots were washed twice in HBSS, transferred to 35 mm well culture plates containing 3 ml of serum-free DMEM containing penicillin/streptomycin, and incubated for 24 hrs in a humidified 5% CO2 incubator at 37° C. Pharmacological agents added to the culture medium were filter sterilized prior to use.
After the incubation period, the muscle tissue was pelleted, and aliquots of culture medium were frozen in liquid nitrogen and stored at −80° C. The levels of IL-6, IL-1β, PGE2, and IL-10 proteins secreted into the culture medium were determined using commercially available ELISA kits (R&D Systems, Minneapolis, Minn.) according to the manufacturer's instructions. Nitric oxide (NO) released into the culture medium was estimated by measuring the stable end products of NO metabolism. Nitrate/nitrate levels were measured 24 hrs postoperatively using commercially available test kit (Oxford Biomedical Research, Oxford, Mich.) and quantified according to the manufacturer's directions. In this assay system, nitrate is reduced to nitrite using granulated cadmium, and the total nitrite concentration is subsequently measured using the Griess reaction. All measurements were normalized to tissue wet weight.

[1] = system: rats with ileus induced by mild manipulation of the small intestine; experiment: Example 4 intestinal transit (geometric center) after IM, CO pre-treatment; type: in vivo, rat
Experimental: Ileus was induced by mild manipulation of the small intestine (IM). Rats were exposed to decreasing concentrations of CO (250, 125, 75, 30 ppm) in air for a period of either 1 hr or 3 hr prior to laparotomy (n=6). Results were compared to those obtained using previously established protocols of exposure to CO at 250 ppm 1 hr before and for 24 hr after laparotomy. Gastrointestinal function was assessed in vivo by determining intestinal transit from the distribution throughout the GI tract of orally fed fluorescein labeled dextran. The median distribution of the labeled dextran was determined for statistical comparison by calculating the geometric center (GC).

**Q.** How did the “reduction of mean relative iNOS mRNA expression” value (iNOS mRNA) turn out when `[C-]#[O+]` [CO, carbon monoxide] was run?
**A.** approximately 50%

**Q.** And the serum nitrite/nitrate level (serum nitrite/nitrate)?
**A.** significantly decreased

**Q.** What about the IL-1β protein release (IL-1β protein; IM + CO vs IM, 24 hr after surgery) of the same compound?
**A.** significantly attenuated

**Q.** And the “reduction of IL-1β protein release” value (IL-1β protein; IM + CO vs IM, extracts harvested 24 hr after surgery)?
**A.** 60%

**Q.** And the IL-1β protein (IL-1β protein; control mice treated with CO)?
**A.** no IL-1β protein could be detected

**Q.** What about the “geometric center (GC)” value ([1]; IM rats, 250 ppm for 1 hr only prior to surgery) of the same compound?
**A.** 7.2±0.3

**Q.** What about the “geometric center (GC)” value ([1]; IM rats, 250 ppm pretreatment for 3 hr) of the same compound?
**A.** 8.6±0.3

**Q.** What about the “geometric center (GC)” value ([1]; IM rats, 250 ppm, 1 hr pretreatment followed by 24 hr post-treatment) of the same compound?
**A.** 8.2±0.4

**Q.** What about the “geometric center (GC)” value ([1]; IM rats, pre-treating with 30 ppm) of the same compound?
**A.** 7.0±0.2

**Q.** What about the “geometric center (GC)” value ([1]; IM rats, pre-treating with 75 ppm) of the same compound?
**A.** 8.8±0.1

**Q.** And the “geometric center (GC)” value ([1]; IM rats, pre-treating with 125 ppm)?
**A.** 8.6±0.4

**Q.** And the “geometric center (GC)” value ([1]; unoperated rats, 250 ppm for 24 hr)?
**A.** 8.8±0.4
